Test results taken from PubChem BioAssay AID1259407 (Chemical Carcinogenesis Research Information System (CCRIS), 2018).
Active and inactive are the calls of the source. The rule behind the calls is not given here.

System: CCRIS mutagenicity, Ames/micronucleus/aberration tests
Assay: CCRIS mutagenicity studies
[1] = Test System: AMES SALMONELLA TYPHIMURIUM, Strain/Indicator: TA98, Metabolic Activation: NONE, Method: PREINCUBATION
[2] = Test System: AMES SALMONELLA TYPHIMURIUM, Strain/Indicator: TA100, Metabolic Activation: NONE, Method: PREINCUBATION

In the case of CCOC(C)=O, the mutagenic call (End Point: IN VITRO CHROMOSOMAL ABERRATIONS, Test System: CHO-LB CELLS, Metabolic Activation: NONE) is reported as “inactive; negative”, the mutagenic call (End Point: IN VITRO CHROMOSOMAL ABERRATIONS, Test System: CHO-LB CELLS, Metabolic Activation: RAT, LIVER, S-9, AROCLOR 1254) is reported as “inactive; negative” and the mutagenic call (End Point: IN VIVO MICRONUCLEUS, Test System: BONE MARROW POLYCHROMATIC ERYTHROCYTES, Species: MOUSE, Strain/Sex: DDY/MALE, Route: IP) is reported as “inactive; negative”. The mutagenic call (Test System: AMES SALMONELLA TYPHIMURIUM, Strain/Indicator: TA97, Metabolic Activation: HAMSTER, LIVER, S-9, AROCLOR 1254 (10 OR 30%), Method: PREINCUBATION) was “inactive; negative”, the mutagenic call (Test System: AMES SALMONELLA TYPHIMURIUM, Strain/Indicator: TA97, Metabolic Activation: NONE, Method: PREINCUBATION) was “inactive; negative” and the mutagenic call (Test System: AMES SALMONELLA TYPHIMURIUM, Strain/Indicator: TA97, Metabolic Activation: RAT, LIVER, S-9, AROCLOR 1254 (10 OR 30%), Method: PREINCUBATION) was “inactive; negative”. For the same molecule, the mutagenic call (Test System: AMES SALMONELLA TYPHIMURIUM, Strain/Indicator: TA98, Metabolic Activation: HAMSTER, LIVER, S-9, AROCLOR 1254 (10 OR 30%), Method: PREINCUBATION) was “inactive; negative”, the mutagenic call [1] was “inactive; negative” and the mutagenic call (Test System: AMES SALMONELLA TYPHIMURIUM, Strain/Indicator: TA98, Metabolic Activation: RAT, LIVER, S-9, AROCLOR 1254 (10 OR 30%), Method: PREINCUBATION) was “inactive; negative”. The mutagenic call (Test System: AMES SALMONELLA TYPHIMURIUM, Strain/Indicator: TA98, Metabolic Activation: RAT, LIVER, S-9, PHENOBARBITAL AND BETA-NAPHTHOFLAVONE, Method: PREINCUBATION) was “inactive; negative”, the mutagenic call (Test System: AMES SALMONELLA TYPHIMURIUM, Strain/Indicator: TA100, Metabolic Activation: HAMSTER, LIVER, S-9, AROCLOR 1254 (10 OR 30%), Method: PREINCUBATION) was “inactive; negative” and the mutagenic call [2] was “inactive; negative”. The mutagenic call (Test System: AMES SALMONELLA TYPHIMURIUM, Strain/Indicator: TA100, Metabolic Activation: RAT, LIVER, S-9, AROCLOR 1254 (10 OR 30%), Method: PREINCUBATION) was “inactive; negative”, the mutagenic call (Test System: AMES SALMONELLA TYPHIMURIUM, Strain/Indicator: TA100, Metabolic Activation: RAT, LIVER, S-9, PHENOBARBITAL AND BETA-NAPHTHOFLAVONE, Method: PREINCUBATION) was “inactive; negative” and the mutagenic call (Test System: AMES SALMONELLA TYPHIMURIUM, Strain/Indicator: TA102, Metabolic Activation: NONE, Method: PREINCUBATION) was “inactive; negative”. The mutagenic call (Test System: AMES SALMONELLA TYPHIMURIUM, Strain/Indicator: TA102, Metabolic Activation: RAT, LIVER, S-9, PHENOBARBITAL AND BETA-NAPHTHOFLAVONE, Method: PREINCUBATION) was “inactive; negative”, the mutagenic call (Test System: AMES SALMONELLA TYPHIMURIUM, Strain/Indicator: TA104, Metabolic Activation: NONE, Method: PREINCUBATION) was “inactive; negative” and the mutagenic call (Test System: AMES SALMONELLA TYPHIMURIUM, Strain/Indicator: TA104, Metabolic Activation: RAT, LIVER, S-9, PHENOBARBITAL AND BETA-NAPHTHOFLAVONE, Method: PREINCUBATION) was “inactive; negative”. For the same molecule, the mutagenic call (Test System: AMES SALMONELLA TYPHIMURIUM, Strain/Indicator: TA1535, Metabolic Activation: HAMSTER, LIVER, S-9, AROCLOR 1254 (10 OR 30%), Method: PREINCUBATION) was “inactive; negative”, the mutagenic call (Test System: AMES SALMONELLA TYPHIMURIUM, Strain/Indicator: TA1535, Metabolic Activation: NONE, Method: PREINCUBATION) was “inactive; negative” and the mutagenic call (Test System: AMES SALMONELLA TYPHIMURIUM, Strain/Indicator: TA1535, Metabolic Activation: RAT, LIVER, S-9, AROCLOR 1254 (10 OR 30%), Method: PREINCUBATION) was “inactive; negative”. The mutagenic call (Test System: AMES SALMONELLA TYPHIMURIUM, Strain/Indicator: TA1535, Metabolic Activation: RAT, LIVER, S-9, PHENOBARBITAL AND BETA-NAPHTHOFLAVONE, Method: PREINCUBATION) was “inactive; negative”, the mutagenic call (Test System: AMES SALMONELLA TYPHIMURIUM, Strain/Indicator: TA1537, Metabolic Activation: HAMSTER, LIVER, S-9, AROCLOR 1254 (30%), Method: PREINCUBATION) was “inactive; negative” and the mutagenic call (Test System: AMES SALMONELLA TYPHIMURIUM, Strain/Indicator: TA1537, Metabolic Activation: NONE, Method: PREINCUBATION) was “inactive; negative”. The mutagenic call (Test System: AMES SALMONELLA TYPHIMURIUM, Strain/Indicator: TA1537, Metabolic Activation: RAT, LIVER, S-9, AROCLOR 1254 (30%), Method: PREINCUBATION) was “inactive; negative”, the mutagenic call (Test System: AMES SALMONELLA TYPHIMURIUM, Strain/Indicator: TA1537, Metabolic Activation: RAT, LIVER, S-9, PHENOBARBITAL AND BETA-NAPHTHOFLAVONE, Method: PREINCUBATION) was “inactive; negative” and the mutagenic call (Test System: E. COLI, Strain/Indicator: WP2UVRA/PKM101, Metabolic Activation: NONE, Method: PREINCUBATION) was “inactive; negative”. For the same molecule, the mutagenic call (Test System: E. COLI, Strain/Indicator: WP2UVRA/PKM101, Metabolic Activation: RAT, LIVER, S-9, PHENOBARBITAL AND BETA-NAPHTHOFLAVONE, Method: PREINCUBATION) was “inactive; negative”, the mutagenic call (Test System: E. COLI, Strain/Indicator: WP2UVRA, Metabolic Activation: NONE, Method: PREINCUBATION) was “inactive; negative” and the mutagenic call (Test System: E. COLI, Strain/Indicator: WP2UVRA, Metabolic Activation: RAT, LIVER, S-9, PHENOBARBITAL AND BETA-NAPHTHOFLAVONE, Method: PREINCUBATION) was “inactive; negative”.

Cc1nc2ccc(N(C)C)c(C)c2nc1C was tested, and the mutagenic call [1] was “inactive; negative”, the mutagenic call (Test System: AMES SALMONELLA TYPHIMURIUM, Strain/Indicator: TA98, Metabolic Activation: RAT, LIVER, S-9, PCB, Method: PREINCUBATION) was “active; positive” and the mutagenic call [2] was “inactive; negative”. For the same molecule, the mutagenic call (Test System: AMES SALMONELLA TYPHIMURIUM, Strain/Indicator: TA100, Metabolic Activation: RAT, LIVER, S-9, PCB, Method: PREINCUBATION) was “active; positive”.

CCCCCCCCCCCC(=O)OOC(=O)CCCCCCCCCCC was tested, and the mutagenic call (Test System: AMES SALMONELLA TYPHIMURIUM, Strain/Indicator: TA98, Metabolic Activation: HAMSTER, LIVER, S-9, AROCLOR 1254 (10%), Method: STANDARD PLATE) was “inactive; negative”, the mutagenic call (Test System: AMES SALMONELLA TYPHIMURIUM, Strain/Indicator: TA98, Metabolic Activation: NONE, Method: STANDARD PLATE) was “inactive; negative” and the mutagenic call (Test System: AMES SALMONELLA TYPHIMURIUM, Strain/Indicator: TA98, Metabolic Activation: RAT, LIVER, S-9, AROCLOR 1254 (10%), Method: STANDARD PLATE) was “inactive; negative”. For the same molecule, the mutagenic call (Test System: AMES SALMONELLA TYPHIMURIUM, Strain/Indicator: TA100, Metabolic Activation: HAMSTER, LIVER, S-9, AROCLOR 1254 (10%), Method: STANDARD PLATE) was “inactive; negative”, the mutagenic call (Test System: AMES SALMONELLA TYPHIMURIUM, Strain/Indicator: TA100, Metabolic Activation: NONE, Method: STANDARD PLATE) was “inactive; negative” and the mutagenic call (Test System: AMES SALMONELLA TYPHIMURIUM, Strain/Indicator: TA100, Metabolic Activation: RAT, LIVER, S-9, AROCLOR 1254 (10%), Method: STANDARD PLATE) was “inactive; negative”. For the same molecule, the mutagenic call (Test System: AMES SALMONELLA TYPHIMURIUM, Strain/Indicator: TA1535, Metabolic Activation: HAMSTER, LIVER, S-9, AROCLOR 1254 (10%), Method: STANDARD PLATE) was “inactive; negative”, the mutagenic call (Test System: AMES SALMONELLA TYPHIMURIUM, Strain/Indicator: TA1535, Metabolic Activation: NONE, Method: STANDARD PLATE) was “inactive; negative” and the mutagenic call (Test System: AMES SALMONELLA TYPHIMURIUM, Strain/Indicator: TA1535, Metabolic Activation: RAT, LIVER, S-9, AROCLOR 1254 (10%), Method: STANDARD PLATE) was “inactive; negative”. For the same molecule, the mutagenic call (Test System: AMES SALMONELLA TYPHIMURIUM, Strain/Indicator: TA1537, Metabolic Activation: HAMSTER, LIVER, S-9, AROCLOR 1254 (10%), Method: STANDARD PLATE) was “inactive; negative”, the mutagenic call (Test System: AMES SALMONELLA TYPHIMURIUM, Strain/Indicator: TA1537, Metabolic Activation: NONE, Method: STANDARD PLATE) was “inactive; negative” and the mutagenic call (Test System: AMES SALMONELLA TYPHIMURIUM, Strain/Indicator: TA1537, Metabolic Activation: RAT, LIVER, S-9, AROCLOR 1254 (10%), Method: STANDARD PLATE) was “inactive; negative”. The mutagenic call (Test System: AMES SALMONELLA TYPHIMURIUM, Strain/Indicator: TA1538, Metabolic Activation: HAMSTER, LIVER, S-9, AROCLOR 1254 (10%), Method: STANDARD PLATE) was “inactive; negative”, the mutagenic call (Test System: AMES SALMONELLA TYPHIMURIUM, Strain/Indicator: TA1538, Metabolic Activation: NONE, Method: STANDARD PLATE) was “inactive; negative” and the mutagenic call (Test System: AMES SALMONELLA TYPHIMURIUM, Strain/Indicator: TA1538, Metabolic Activation: RAT, LIVER, S-9, AROCLOR 1254 (10%), Method: STANDARD PLATE) was “inactive; negative”. The mutagenic call (Test System: MOUSE LYMPHOMA, Strain/Indicator: L5178Y (TK+/TK-), Metabolic Activation: NONE, Method: SUSPENSION/PLATE) was “inactive; negative. reevaluation of results: inconclusive” and the mutagenic call (Test System: MOUSE LYMPHOMA, Strain/Indicator: L5178Y (TK+/TK-), Metabolic Activation: RAT, LIVER, S-9, AROCLOR 1254, Method: SUSPENSION/PLATE) was “inactive; negative. reevaluation of results: inconclusive”.
